Columns and labels:
[1] = biological target: T1, α1b-AR (Homo sapiens, UniProt P35368); experiment: α1-Adrenergic Receptor Binding Assay (125I-HEAT radio-ligand), α1b subtype; conditions: membranes of COS-7 cells transfected with α1b subtype; 125I-HEAT 50 pM; rt 1 hr
T1 construct: expressed in transfected cells; host or cells: COS-7 cells (membranes)
T1 sequence (P35368 1-520): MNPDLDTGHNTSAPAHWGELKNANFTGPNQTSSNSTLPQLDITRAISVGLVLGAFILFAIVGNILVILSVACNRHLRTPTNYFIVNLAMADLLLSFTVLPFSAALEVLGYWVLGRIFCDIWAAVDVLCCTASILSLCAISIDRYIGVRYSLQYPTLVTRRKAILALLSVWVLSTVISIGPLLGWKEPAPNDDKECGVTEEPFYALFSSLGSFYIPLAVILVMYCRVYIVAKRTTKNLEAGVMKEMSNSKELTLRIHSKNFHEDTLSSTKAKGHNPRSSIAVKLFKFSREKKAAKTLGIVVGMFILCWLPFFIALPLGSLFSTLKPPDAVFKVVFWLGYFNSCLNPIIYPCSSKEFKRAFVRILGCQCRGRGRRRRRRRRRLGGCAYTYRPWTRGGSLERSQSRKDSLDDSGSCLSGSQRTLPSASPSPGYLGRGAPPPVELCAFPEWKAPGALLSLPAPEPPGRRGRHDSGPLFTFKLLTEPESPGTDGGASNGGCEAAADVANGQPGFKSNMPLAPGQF
Procedure: (§1) α1-Adrenergic Receptor Binding Assay
(§2) Preparation of COS Cell Membranes
(§3) Membranes were prepared from COS-7 cells (African Green monkey kidney SV40-transformed cells) that had been transfected with one of the three α1-AR subtypes (Genbank accession number for the α1a subtype: AF013261; Genbank accession number for the α1b subtype: NM000679; Genbank accession number for the α1d subtype: NM000678) using the following method: COS cells from ten 100 mm tissue culture plates were scraped into a 5 mL volume of TE (a mixture of 50 mM Tris-HCl, 5 mM EDTA, pH 7.4). […] The disrupted cells were centrifuged at 1000×g min at 4° C. Supernatants were centrifuged at 34,500×g for 20 min at 4° C. The membrane pellets were suspended in a 2 mL volume of TNE (a mixture of 50 mM Tris-HCl, 5 mM EDTA and 150 mM NaCl at pH 7.4). An aliquot of the membrane suspension was stored at −70° C. until use. The protein concentration was determined using the BioRad “DC” protein assay kit following membrane solubilization with Triton X-100.
(§4) Radio-Ligand Binding Assay
(§5) Triplicate determinations of radio-ligand binding in the presence of increasing concentrations of testing compound were made. The reagents were added to 96-well polypropylene plate wells. […] The plate was incubated at rt for 1 hr. The contents of the wells were filtered through a glass filter (type C) (GF/C) membrane Unifilter plate (Packard Instruments) using the Packard Filtermate cell harvester. The filter plates were dried in a vacuum oven for 30 min at 40° C. 25 μL Microscint 20 liquid scintillation fluid (Packard Instruments) was added to each well. The radioactive content was analyzed in the TopCount microplate scintillation counter (Packard Instruments).

[2] = biological target: T2, α1a-AR (Homo sapiens, UniProt P35348); experiment: α1-Adrenergic Receptor Binding Assay (125I-HEAT radio-ligand), α1a subtype; conditions: membranes of COS-7 cells transfected with α1a subtype; 125I-HEAT 50 pM; rt 1 hr
T2 construct: expressed in transfected cells; host or cells: COS-7 cells (membranes)
T2 sequence (P35348 1-455 isoform P35348-4): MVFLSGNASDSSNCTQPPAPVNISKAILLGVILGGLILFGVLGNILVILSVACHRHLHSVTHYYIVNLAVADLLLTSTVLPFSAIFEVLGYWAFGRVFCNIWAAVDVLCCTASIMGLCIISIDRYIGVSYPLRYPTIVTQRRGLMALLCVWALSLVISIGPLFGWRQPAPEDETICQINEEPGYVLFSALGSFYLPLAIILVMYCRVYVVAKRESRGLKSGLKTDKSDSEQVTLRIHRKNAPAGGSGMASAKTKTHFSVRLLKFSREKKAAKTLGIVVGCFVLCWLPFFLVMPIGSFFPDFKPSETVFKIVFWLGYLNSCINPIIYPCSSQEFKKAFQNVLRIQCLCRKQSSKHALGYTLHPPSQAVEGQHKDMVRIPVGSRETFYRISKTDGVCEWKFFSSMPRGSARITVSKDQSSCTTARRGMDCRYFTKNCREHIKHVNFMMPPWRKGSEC
Procedure: as §1, §2, §3, §4, §5

[3] = biological target: T3, α1d-AR (Homo sapiens, UniProt P25100); experiment: α1-Adrenergic Receptor Binding Assay (125I-HEAT radio-ligand), α1d subtype; conditions: membranes of COS-7 cells transfected with α1d subtype; 125I-HEAT 50 pM; rt 1 hr
T3 construct: expressed in transfected cells; host or cells: COS-7 cells (membranes)
T3 sequence (P25100 1-572): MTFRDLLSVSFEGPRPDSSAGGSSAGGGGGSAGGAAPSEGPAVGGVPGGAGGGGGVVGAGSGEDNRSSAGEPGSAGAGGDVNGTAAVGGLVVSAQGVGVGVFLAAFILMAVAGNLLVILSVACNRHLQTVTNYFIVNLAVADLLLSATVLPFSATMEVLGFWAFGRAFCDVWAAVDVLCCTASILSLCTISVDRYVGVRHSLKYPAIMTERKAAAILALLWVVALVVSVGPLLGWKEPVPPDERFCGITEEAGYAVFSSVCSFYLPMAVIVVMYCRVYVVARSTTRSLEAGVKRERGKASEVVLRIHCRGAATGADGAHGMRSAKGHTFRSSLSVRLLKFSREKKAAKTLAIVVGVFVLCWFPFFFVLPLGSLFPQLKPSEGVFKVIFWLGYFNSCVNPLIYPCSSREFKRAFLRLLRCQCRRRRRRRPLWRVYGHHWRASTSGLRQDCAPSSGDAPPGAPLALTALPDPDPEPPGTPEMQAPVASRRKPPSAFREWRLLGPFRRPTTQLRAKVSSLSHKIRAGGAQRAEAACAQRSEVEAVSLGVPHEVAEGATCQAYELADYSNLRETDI
Procedure: as §1, §2, §3, §4, §5

[4] = test system: α1a and α1d subtypes over the α1b subtype; conditions: cited from earlier work

Structure (SMILES)	Ki [1] [µM]	Ki [2] [µM]	Ki [3] [µM]	selective for the α1a and α1d subtypes over the α1b subtype [4]
CC(C)Oc1ccccc1N1CCN([C@H]2CC[C@H](NC(=O)Nc3cc(F)cc(F)c3)CC2)CC1 [Cpd 29, 1-(3,5-difluoro-phenyl)-r-3-{t-4-[4-(2-isopropoxy-phenyl)-piperazin-1-yl]-cyclohexyl}-urea]	0.052	0.0057	0.001	–
COc1ccc(NC(=O)N[C@H]2CC[C@H](N3CCN(c4ccccc4OC(C)C)CC3)CC2)cc1Cl [Cpd 35, 1-(3-chloro-4-methoxy-phenyl)-r-3-{t-4-[4-(2-isopropoxy-phenyl)-piperazin-1-yl]-cyclohexyl}-urea]	0.108	0.013	0.0023	–
CC(C)Oc1ccccc1N1CCN([C@H]2CC[C@@H](NC(=O)Nc3cc(F)ccc3F)CC2)CC1 [Cpd 24, 1-(2,5-difluoro-phenyl)-r-3-{c-4-[4-(2-isopropoxy-phenyl)-piperazin-1-yl]-cyclohexyl}-urea]	0.259	0.0258	0.0525	–
CCOc1ccccc1OCCN[C@H](C)Cc1ccc(OC)c(S(N)(=O)=O)c1 [Tamsulosin]	–	–	–	about 15 fold
CC(C)Oc1ccccc1N1CCN([C@H]2CC[C@H](NC(=O)NCc3cccc(F)c3)CC2)CC1 [Cpd 6, 1-(3-fluoro-benzyl)-r-3-{t-4-[4-(2-isopropoxy-phenyl)-piperazin-1-yl]-cyclohexyl}-urea]	0.0696	0.0108	0.0153	–
CC(C)Oc1ccccc1N1CCN([C@H]2CC[C@H](NC(=O)Nc3ccc(OC(F)(F)F)cc3)CC2)CC1 [Cpd 32, r-1-{t-4-[4-(2-isopropoxy-phenyl)-piperazin-1-yl]-cyclohexyl}-3-(4-trifluoromethoxy-phenyl)-urea]	0.129	0.181	0.058	–
COc1ccc(NC(=O)N[C@H]2CC[C@H](N3CCN(c4ccccc4OC(C)C)CC3)CC2)c(C)c1 [Cpd 21, r-1-{t-4-[4-(2-isopropoxy-phenyl)-piperazin-1-yl]-cyclohexyl}-3-(4-methoxy-2-methyl-phenyl)-urea]	0.153	0.0234	0.0216	–
COc1ccc(NC(=O)N[C@H]2CC[C@@H](N3CCN(c4ccccc4OC(C)C)CC3)CC2)cc1Cl [Cpd 34, 1-(3-chloro-4-methoxy-phenyl)-r-3-{c-4-[4-(2-isopropoxy-phenyl)-piperazin-1-yl]-cyclohexyl}-urea]	0.493	0.073	0.028	–
CC(C)Oc1ccccc1N1CCN([C@H]2CC[C@@H](NC(=O)Nc3cc(F)cc(F)c3)CC2)CC1 [Cpd 28, 1-(3,5-difluoro-phenyl)-r-3-{c-4-[4-(2-isopropoxy-phenyl)-piperazin-1-yl]-cyclohexyl}-urea]	1.05	0.108	0.044	–
CC(C)Oc1ccccc1N1CCN([C@H]2CC[C@@H](NC(=O)Nc3ccccc3Cl)CC2)CC1 [Cpd 9, 1-(2-chloro-phenyl)-r-3-{c-4-[4-(2-isopropoxy-phenyl)-piperazin-1-yl]-cyclohexyl}-urea]	0.373	0.0475	0.046	–
CC(C)Oc1ccccc1N1CCN(C2CCC(NC(=O)Nc3ccccc3OC(F)(F)F)CC2)CC1 (mixture of isomers) [Cpd 30, 1-{4-[4-(2-isopropoxy-phenyl)-piperazin-1-yl]-cyclohexyl}-3-(2-trifluoromethoxy-phenyl)-urea]	0.604	0.101	0.0134	–
CC(C)Oc1ccccc1N1CCN(C2CCC(NC(=O)Nc3ccccc3Oc3ccccc3)CC2)CC1 (mixture of isomers) [Cpd 17, 1-{4-[4-(2-isopropoxy-phenyl)-piperazin-1-yl]-cyclohexyl}-3-(2-phenoxy-phenyl)-urea]	0.43	0.038	0.0084	–
CC(C)Oc1ccccc1N1CCN([C@H]2CC[C@H](NC(=O)Nc3cc(F)ccc3F)CC2)CC1 [Cpd 25, 1-(2,5-difluoro-phenyl)-r-3-{t-4-[4-(2-isopropoxy-phenyl)-piperazin-1-yl]-cyclohexyl}-urea]	0.0364	0.0017	0.0012	–
CC(C)Oc1ccccc1N1CCN([C@H]2CC[C@@H](NC(=O)NCc3cccc(F)c3)CC2)CC1 [Cpd 5, 1-(3-fluoro-benzyl)-r-3-{c-4-[4-(2-isopropoxy-phenyl)-piperazin-1-yl]-cyclohexyl}-urea]	0.706	0.082	0.062	–

From US7517885B2, “Substituted [4-(4-phenyl-piperazin-1-yl)-cyclohexyl]-urea compounds” (Janssen Pharmaceutica N.V., priority 2005, dated 2009)
